# Data reported in patent US20110237560A1, “MODULATING AND/OR DETECTING ACTIVATION INDUCED DEAMINASE AND METHODS OF USE THEREOF” (priority 2010, published 2011).
# Residues, ends and D or L forms follow the SMILES beside them. *: point of attachment. Cbz = O=C(OCc1ccccc1)*
# Assays:
# AID-GFP = experiment: Monitoring of AID stability: GFP signal (MFI) by flow cytometry in Ramos transfectants; format: cell-based, human; conditions: for degradation of AID-GFP induced by Hsp90 inhibition, with proteasome inhibitor: stable transfectants of Ramos and DT40 cells, 10 microM MG132
# Procedure: (§1) One of two experiments is shown. […] (D) AID stabilization by Hsp90 requires protein-protein interaction. […] Dead cells were excluded by propidium iodide staining. […] One of five independent experiments is shown. […] (D) and (F) are representative of three different experiments.
# (A) AID degradation following Hsp90 inhibition is distinct from nuclear AID degradation. Ramos cells stably expressing AID-GFP were treated in triplicate with DMSO (Ctrl), 2 microM GA and/or 50 ng/mL leptomycin B (LMB) and the GFP signal was monitored over time by flow cytometry. The MFI normalized to t0=100% is plotted for each treatment. Dead cells were excluded by propidium iodide staining. One out of five identical experiments is shown. […] Ramos cells stably expressing AID-GFP pretreated with 100 ng/mL cycloheximide (CHX), a known protein synthesis inhibitor, for 1 h were treated and analyzed as in (A). One out of four identical experiments is shown. (C) Cytoplasmic destabilization of AID following Hsp90 inhibition. Analogous experiments to those in A and B were performed on Ramos cells stably expressing GFP-AID, which was previously shown to be unable to enter the nucleus (probably because the N-terminal fusion of GFP to AID masks the NLS)^28. One out of three identical experiments is shown. (D) AID degradation following Hsp90 inhibition requires the proteasome. Ramos cells stably expressing AID-GFP were treated with DMSO (Ctrl), 2 microM 17-MG and 10 microM MG132, a known specific proteasome inhibitor, as indicated. The GFP signal was monitored and plotted as above. One out of five experiments is shown. (E) Lower AID steady-state levels induced by Hsp90 inhibition can be blocked by proteasome inhibition in B cell lymphoma lines. Human and chicken B-cell lines (Ramos and DT40 respectively) were treated with 2 microM GA and 10 microM MG132 and subsequently harvested as indicated. The cells were lyzed, fractionated on SDS-PAGE and blotted. Blots were probed with anti-AID and anti-actin. One out of two experiments is shown for each cell line. (F) Hsp90 inhibition enhances AID polyubiquitination. […] Immunoprecipitates were analyzed by western blot using anti-GFP and anti-ubiquitin antibodies. […] In the lower panel, the relative amount of polyubiquitinated AID was quantified by densitometry using ImageQuant™ and the relative value of three independent experiments for each Ramos, HeLa and primary mouse B cells was plotted+SD. […]
# (A) DT40 cells and (B) Hela aid−/− cells stably expressing AID-GFP were treated with the indicated combinations of DMSO (Ctrl), 2 microM GA, 50 ng/mL leptomycin B (LMB), a nuclear export inhibitor and/or 10 microM MG132, a proteasome inhibitor. The GFP signal was monitored by flow cytometry and the MFI normalized to the signal at t0 for each treatment. […]
# IgVlambda region = experiment: Somatic hypermutation in DT40 cells by sequencing of IgVlambda; conditions: 0.1 microM
# Procedure: DT40 sIgM− cells were purified by FACS sorting and grown for about a week in 24-well plates until confluent before addition of Hsp90 inhibitors. This method was favored over using single cell clones because of the effect of Hsp90 inhibition on cell growth. […] Cell populations were sorted and grown as above and the sIgM phenotype analyzed by flow cytometry. The mutation load and pattern was determined by sequencing PCR-amplified Vlambda. AID levels in the populations were quantified by western blot after expansion.
# This region was PCR-amplified from control and 17-MG-treated (0.1 microM) cell populations after 4 weeks of growth, the PCR product cloned and 10-11 clones for each population were sequenced.
# DT40 cells = experiment: DT40 cell growth under chronic Hsp90 inhibition; format: cell-based, chicken; conditions: chronic low doses
# Procedure: The median obtained for populations treated in each condition is indicated. […] Mean+SD values for the seven populations in each condition are plotted (middle panel). […] An identical experiment to (A) was performed except that the less toxic 17-AAG was used to inhibit Hsp90. […] The effect of the two 17-AAG concentrations used on DT40 growth was monitored by calculating the total number of cells in populations originating from 10^5 cells (left panel). The data plotted is the mean+SD of triplicate cultures for each condition. […] The quantitation of AID levels (middle panel) and cell growth curves (right panel) were done as in (B).
# endogenous AID = experiment: Endogenous AID levels by western blot in B-cell lymphoma lines (Ramos, CH12-F3, DT40); format: cell-based, human, mouse and chicken; conditions: Ramos and DT40; 2 microM GA and 10 microM MG132
# Procedure: as §1
# (A) AID degradation following Hsp90 inhibition is distinct from nuclear AID degradation. Ramos cells stably expressing AID-GFP were treated in triplicate with DMSO (Ctrl), 2 microM GA and/or 50 ng/mL leptomycin B (LMB) and the GFP signal was monitored over time by flow cytometry. The MFI normalized to t0=100% is plotted for each treatment. Dead cells were excluded by propidium iodide staining. […] Ramos cells stably expressing AID-GFP pretreated with 100 ng/mL cycloheximide (CHX), a known protein synthesis inhibitor, for 1 h were treated and analyzed as in (A). […] The GFP signal was monitored and plotted as above. […] Immunoprecipitates were analyzed by western blot using anti-GFP and anti-ubiquitin antibodies. […] In the lower panel, the relative amount of polyubiquitinated AID was quantified by densitometry using ImageQuant™ and the relative value of three independent experiments for each Ramos, HeLa and primary mouse B cells was plotted+SD.
# In cell lines stably expressing GFP-tagged AID or AID mutants, the GFP fluorescence signal was measured by flow cytometry at various time points after the indicated treatments. […]
# Hsp90 = conditions: cited from earlier work
# [1] = tested on: various cancer cell lines; conditions: cited from earlier work
# AID mRNA = conditions: breast and ovarian tissue; cited from earlier work
compound,measurement,setting,value
CC(=O)N[C@@H](CSC(=O)[C@]1([C@@H](O)C(C)C)NC(=O)[C@H](C)[C@@H]1O)C(=O)O [lactacystin],"degradation of AID-GFP induced by Hsp90 inhibition, with proteasome inhibitor",AID-GFP,Identical results
"C=CCNC1=C2C[C@@H](C)C[C@H](OC)[C@H](O)[C@@H](C)/C=C(\C)[C@H](OC(N)=O)[C@@H](OC)/C=C\C=C(/C)C(=O)NC(=CC1=O)C2=O [17-AAG, 17-(Allylamino)-17-demethoxygeldanamycin]",decrease of mutation frequency versus controls,IgVlambda region; 4 weeks,~5 fold
same,mutation frequency of the IgVlambda region,"IgVlambda region; 4 weeks of growth, 10-11 clones per population",1.11×10^−3 mutations/base pair
same,cell growth,DT40 cells,minimal impact on cell growth
CC(C)C[C@@H](C=O)NC(=O)[C@H](CC(C)C)NC(=O)[C@H](CC(C)C)NC(=O)OCc1ccccc1 [MG132] (Cbz-Leu-Leu-Leu-aldehyde),"degradation of AID-GFP induced by Hsp90 inhibition, with proteasome inhibitor",AID-GFP,prevented the degradation of AID
same,"degradation of endogenous AID induced by Hsp90 inhibition, with proteasome inhibitor",endogenous AID,prevented the degradation of AID
"COC1=C2C[C@@H](C)C[C@H](OC)[C@H](O)[C@@H](C)/C=C(\C)[C@H](OC(N)=O)[C@@H](OC)/C=C\C=C(/C)C(=O)NC(=CC1=O)C2=O [GA, geldanamycin]",cell growth,DT40 cells,delayed cell growth
O=C1OCC/C=C/CC/C=C/C(=N/OCC(=O)N2CCCCC2)Cc2c(Cl)c(O)cc(O)c21 [NXD30001],Hsp90 binding affinity compared to 17-MG and 17-DMAG,Hsp90,enhanced
same,potency in inhibiting cell growth in vitro compared to 17-MG and 17-DMAG,[1],enhanced
"CCC(=C/[C@H](C)C/C=C/C(C)=C/[C@@H](C)C(=O)[C@@H](C)[C@H](O)[C@@H](C)C/C(C)=C/C(=O)O)/C=C/[C@@H]1OC(=O)C=C[C@@H]1C [LMB, leptomycin B]",stability of GFP-AID (unable to enter the nucleus),AID-GFP; Ramos expressing GFP-AID,not destabilized
estrogen,increase in AID mRNA production,AID mRNA,> 20 fold
"C[C@@H]1C[C@@H]([C@H](O)CC2CC(=O)NC(=O)C2)C(=O)[C@@H](C)C1 [CHX, cycloheximide]",decay of AID-GFP after protein synthesis inhibition,"AID-GFP; Ramos, CHX alone",expected decay
